ChEMBL document CHEMBL1250513, “(R,S)-anti-1-amino-2-[18F]fluorocyclopentyl-1-carboxylic acid: synthesis from racemic 2-benzyloxycyclopentanone and biological evaluation for brain tumor imaging with positron emission tomography” (J Med Chem, 2010)

How the values were obtained:
Blood [1] = test: Biodistribution in rat 9L tumor bearing fisher rat blood at 40 to 50 uCi, iv after 15 mins; type: ADME, organism-based; conditions: in vivo, 0.25 h
Heart [2] = test: Biodistribution in rat 9L tumor bearing fisher rat heart at 40 to 50 uCi, iv after 15 mins; type: ADME, organism-based; conditions: in vivo, 0.25 h
Lung [3] = test: Biodistribution in rat 9L tumor bearing fisher rat lung at 40 to 50 uCi, iv after 15 mins; type: ADME, organism-based; conditions: in vivo, 0.25 h
Liver [4] = test: Biodistribution in rat 9L tumor bearing fisher rat liver at 40 to 50 uCi, iv after 15 mins; type: ADME, organism-based; conditions: in vivo, 0.25 h
Pancreas [5] = test: Biodistribution in rat 9L tumor bearing fisher rat pancreas at 40 to 50 uCi, iv after 15 mins; type: ADME, organism-based; conditions: in vivo, 0.25 h
Spleen [6] = test: Biodistribution in rat 9L tumor bearing fisher rat spleen at 40 to 50 uCi, iv after 15 mins; type: ADME, organism-based; conditions: in vivo, 0.25 h
Kidney [7] = test: Biodistribution in rat 9L tumor bearing fisher rat kidney at 40 to 50 uCi, iv after 15 mins; type: ADME, organism-based; conditions: in vivo, 0.25 h
Muscle tissue [8] = test: Biodistribution in rat 9L tumor bearing fisher rat muscle at 40 to 50 uCi, iv after 15 mins; type: ADME, organism-based; conditions: in vivo, 0.25 h
Brain [9] = test: Biodistribution in rat 9L tumor bearing fisher rat brain at 40 to 50 uCi, iv after 15 mins; type: ADME, organism-based; conditions: in vivo, 0.25 h
[10] = Biodistribution in rat 9L tumor bearing fisher rat tumor at 40 to 50 uCi, iv after 15 mins; type: ADME, organism-based, Neoplasm; conditions: in vivo, 0.25 h
Testes [11] = test: Biodistribution in rat 9L tumor bearing fisher rat testes at 40 to 50 uCi, iv after 15 mins; type: ADME, organism-based, Testis; conditions: in vivo, 0.25 h
Bone [12] = test: Biodistribution in rat 9L tumor bearing fisher rat bone at 40 to 50 uCi, iv after 15 mins; type: ADME, organism-based, Bone element; conditions: in vivo, 0.25 h
Blood [13] = test: Biodistribution in rat 9L tumor bearing fisher rat blood at 40 to 50 uCi, iv after 30 mins; type: ADME, organism-based; conditions: in vivo, 0.5 h
Heart [14] = test: Biodistribution in rat 9L tumor bearing fisher rat heart at 40 to 50 uCi, iv after 30 mins; type: ADME, organism-based; conditions: in vivo, 0.5 h
Lung [15] = test: Biodistribution in rat 9L tumor bearing fisher rat lung at 40 to 50 uCi, iv after 30 mins; type: ADME, organism-based; conditions: in vivo, 0.5 h
Liver [16] = test: Biodistribution in rat 9L tumor bearing fisher rat liver at 40 to 50 uCi, iv after 30 mins; type: ADME, organism-based; conditions: in vivo, 0.5 h
Pancreas [17] = test: Biodistribution in rat 9L tumor bearing fisher rat pancreas at 40 to 50 uCi, iv after 30 mins; type: ADME, organism-based; conditions: in vivo, 0.5 h
Spleen [18] = test: Biodistribution in rat 9L tumor bearing fisher rat spleen at 40 to 50 uCi, iv after 30 mins; type: ADME, organism-based; conditions: in vivo, 0.5 h
Kidney [19] = test: Biodistribution in rat 9L tumor bearing fisher rat kidney at 40 to 50 uCi, iv after 30 mins; type: ADME, organism-based; conditions: in vivo, 0.5 h
Muscle tissue [20] = test: Biodistribution in rat 9L tumor bearing fisher rat muscle at 40 to 50 uCi, iv after 30 mins; type: ADME, organism-based; conditions: in vivo, 0.5 h
Brain [21] = test: Biodistribution in rat 9L tumor bearing fisher rat brain at 40 to 50 uCi, iv after 30 mins; type: ADME, organism-based; conditions: in vivo, 0.5 h
[22] = Biodistribution in rat 9L tumor bearing fisher rat tumor at 40 to 50 uCi, iv after 30 mins; type: ADME, organism-based, Neoplasm; conditions: in vivo, 0.5 h
Testes [23] = test: Biodistribution in rat 9L tumor bearing fisher rat testes at 40 to 50 uCi, iv after 30 mins; type: ADME, organism-based, Testis; conditions: in vivo, 0.5 h
Bone [24] = test: Biodistribution in rat 9L tumor bearing fisher rat bone at 40 to 50 uCi, iv after 30 mins; type: ADME, organism-based, Bone element; conditions: in vivo, 0.5 h
Blood [25] = test: Biodistribution in rat 9L tumor bearing fisher rat blood at 40 to 50 uCi, iv after 60 mins; type: ADME, organism-based; conditions: in vivo, 1 h
Heart [26] = test: Biodistribution in rat 9L tumor bearing fisher rat heart at 40 to 50 uCi, iv after 60 mins; type: ADME, organism-based; conditions: in vivo, 1 h
Lung [27] = test: Biodistribution in rat 9L tumor bearing fisher rat lung at 40 to 50 uCi, iv after 60 mins; type: ADME, organism-based; conditions: in vivo, 1 h
Liver [28] = test: Biodistribution in rat 9L tumor bearing fisher rat liver at 40 to 50 uCi, iv after 60 mins; type: ADME, organism-based; conditions: in vivo, 1 h
Pancreas [29] = test: Biodistribution in rat 9L tumor bearing fisher rat pancreas at 40 to 50 uCi, iv after 60 mins; type: ADME, organism-based; conditions: in vivo, 1 h
Spleen [30] = test: Biodistribution in rat 9L tumor bearing fisher rat spleen at 40 to 50 uCi, iv after 60 mins; type: ADME, organism-based; conditions: in vivo, 1 h
Kidney [31] = test: Biodistribution in rat 9L tumor bearing fisher rat kidney at 40 to 50 uCi, iv after 60 mins; type: ADME, organism-based; conditions: in vivo, 1 h
Muscle tissue [32] = test: Biodistribution in rat 9L tumor bearing fisher rat muscle at 40 to 50 uCi, iv after 60 mins; type: ADME, organism-based; conditions: in vivo, 1 h
Brain [33] = test: Biodistribution in rat 9L tumor bearing fisher rat brain at 40 to 50 uCi, iv after 60 mins; type: ADME, organism-based; conditions: in vivo, 1 h
[34] = Biodistribution in rat 9L tumor bearing fisher rat tumor at 40 to 50 uCi, iv after 60 mins; type: ADME, organism-based, Neoplasm; conditions: in vivo, 1 h
Testes [35] = test: Biodistribution in rat 9L tumor bearing fisher rat testes at 40 to 50 uCi, iv after 60 mins; type: ADME, organism-based, Testis; conditions: in vivo, 1 h
Bone [36] = test: Biodistribution in rat 9L tumor bearing fisher rat bone at 40 to 50 uCi, iv after 60 mins; type: ADME, organism-based, Bone element; conditions: in vivo, 1 h
Blood [37] = test: Biodistribution in rat 9L tumor bearing fisher rat blood at 40 to 50 uCi, iv after 120 mins; type: ADME, organism-based; conditions: in vivo, 2 h
Heart [38] = test: Biodistribution in rat 9L tumor bearing fisher rat heart at 40 to 50 uCi, iv after 120 mins; type: ADME, organism-based; conditions: in vivo, 2 h
Lung [39] = test: Biodistribution in rat 9L tumor bearing fisher rat lung at 40 to 50 uCi, iv after 120 mins; type: ADME, organism-based; conditions: in vivo, 2 h
Liver [40] = test: Biodistribution in rat 9L tumor bearing fisher rat liver at 40 to 50 uCi, iv after 120 mins; type: ADME, organism-based; conditions: in vivo, 2 h
Pancreas [41] = test: Biodistribution in rat 9L tumor bearing fisher rat pancreas at 40 to 50 uCi, iv after 120 mins; type: ADME, organism-based; conditions: in vivo, 2 h
Spleen [42] = test: Biodistribution in rat 9L tumor bearing fisher rat spleen at 40 to 50 uCi, iv after 120 mins; type: ADME, organism-based; conditions: in vivo, 2 h
Kidney [43] = test: Biodistribution in rat 9L tumor bearing fisher rat kidney at 40 to 50 uCi, iv after 120 mins; type: ADME, organism-based; conditions: in vivo, 2 h
Muscle tissue [44] = test: Biodistribution in rat 9L tumor bearing fisher rat muscle at 40 to 50 uCi, iv after 120 mins; type: ADME, organism-based; conditions: in vivo, 2 h
Brain [45] = test: Biodistribution in rat 9L tumor bearing fisher rat brain at 40 to 50 uCi, iv after 120 mins; type: ADME, organism-based; conditions: in vivo, 2 h
[46] = Biodistribution in rat 9L tumor bearing fisher rat tumor at 40 to 50 uCi, iv after 120 mins; type: ADME, organism-based, Neoplasm; conditions: in vivo, 2 h
Testes [47] = test: Biodistribution in rat 9L tumor bearing fisher rat testes at 40 to 50 uCi, iv after 120 mins; type: ADME, organism-based, Testis; conditions: in vivo, 2 h
Bone [48] = test: Biodistribution in rat 9L tumor bearing fisher rat bone at 40 to 50 uCi, iv after 120 mins; type: ADME, organism-based, Bone element; conditions: in vivo, 2 h
[49] = Ratio of drug uptake in tumor to brain in rat 9L tumor bearing fisher rat […] at 40 to 50 uCi, iv after 15 mins; type: ADME, organism-based; conditions: in vivo, 0.25 h
[50] = Ratio of drug uptake in tumor to brain in rat 9L tumor bearing fisher rat […] at 40 to 50 uCi, iv after 30 mins; type: ADME, organism-based; conditions: in vivo, 0.5 h
[51] = Ratio of drug uptake in tumor to brain in rat 9L tumor bearing fisher rat […] at 40 to 50 uCi, iv after 60 mins; type: ADME, organism-based; conditions: in vivo, 1 h
[52] = Ratio of drug uptake in tumor to brain in rat 9L tumor bearing fisher rat […] at 40 to 50 uCi, iv after 120 mins; type: ADME, organism-based; conditions: in vivo, 2 h

N[C@@]1(C(=O)O)CCC[C@@H]1[18F] (racemic)
Drug uptake (Blood [1]): 0.48 % ID/g | Drug uptake (Heart [2]): 0.56 % ID/g | Drug uptake (Lung [3]): 1.53 % ID/g | Drug uptake (Liver [4]): 0.93 % ID/g | Drug uptake (Pancreas [5]): 2.77 % ID/g | Drug uptake (Spleen [6]): 0.64 % ID/g | Drug uptake (Kidney [7]): 4.87 % ID/g | Drug uptake (Muscle tissue [8]): 0.28 % ID/g | Drug uptake (Brain [9]): 0.12 % ID/g | Drug uptake [10]: 0.57 % ID/g | Drug uptake (Testes [11]): 0.23 % ID/g | Drug uptake (Bone [12]): 0.27 % ID/g | Drug uptake (Blood [13]): 0.29 % ID/g | Drug uptake (Heart [14]): 0.44 % ID/g | Drug uptake (Lung [15]): 1.13 % ID/g | Drug uptake (Liver [16]): 0.63 % ID/g | Drug uptake (Pancreas [17]): 2.91 % ID/g | Drug uptake (Spleen [18]): 0.48 % ID/g | Drug uptake (Kidney [19]): 3.44 % ID/g | Drug uptake (Muscle tissue [20]): 0.28 % ID/g | Drug uptake (Brain [21]): 0.13 % ID/g | Drug uptake [22]: 1.68 % ID/g | Drug uptake (Testes [23]): 0.18 % ID/g | Drug uptake (Bone [24]): 0.17 % ID/g | Drug uptake (Blood [25]): 0.21 % ID/g | Drug uptake (Heart [26]): 0.3 % ID/g | Drug uptake (Lung [27]): 0.8 % ID/g | Drug uptake (Liver [28]): 0.41 % ID/g | Drug uptake (Pancreas [29]): 2.65 % ID/g | Drug uptake (Spleen [30]): 0.3 % ID/g | Drug uptake (Kidney [31]): 2 % ID/g | Drug uptake (Muscle tissue [32]): 0.24 % ID/g | Drug uptake (Brain [33]): 0.1 % ID/g | Drug uptake [34]: 1.24 % ID/g | Drug uptake (Testes [35]): 0.14 % ID/g | Drug uptake (Bone [36]): 0.14 % ID/g | Drug uptake (Blood [37]): 0.14 % ID/g | Drug uptake (Heart [38]): 0.28 % ID/g | Drug uptake (Lung [39]): 0.78 % ID/g | Drug uptake (Liver [40]): 0.4 % ID/g | Drug uptake (Pancreas [41]): 1.84 % ID/g | Drug uptake (Spleen [42]): 0.18 % ID/g | Drug uptake (Kidney [43]): 0.89 % ID/g | Drug uptake (Muscle tissue [44]): 0.17 % ID/g | Drug uptake (Brain [45]): 0.1 % ID/g | Drug uptake [46]: 0.98 % ID/g | Drug uptake (Testes [47]): 0.13 % ID/g | Drug uptake (Bone [48]): 0.13 % ID/g | Ratio [49]: 5 | Ratio [50]: 13 | Ratio [51]: 12 | Ratio [52]: 10
